Test results taken from patent US8664257B2, “Oxygen-substituted 3-heteroaroylamino-propionic acid derivatives and their use as pharmaceuticals” (Sanofi, priority 2010, dated 2014).

molecular target: T1, Recombinant human cathepsin A (Homo sapiens, UniProt P10619); test: Cathepsin A inhibitory activity; assay type: biochemical; conditions: pharmacological test "Cathepsin A inhibitory activity"; IC50 given as class A/B/C; read-out: Activity (2): Cathepsin A inhibitory activity, IC50 class
T1 construct: Recombinant human cathepsin A (residues 29-480, with a C-terminal 10-His tag); 10-His (C); purchased R&D Systems 1049-SE
T1 sequence (P10619 29-312 limits assumed): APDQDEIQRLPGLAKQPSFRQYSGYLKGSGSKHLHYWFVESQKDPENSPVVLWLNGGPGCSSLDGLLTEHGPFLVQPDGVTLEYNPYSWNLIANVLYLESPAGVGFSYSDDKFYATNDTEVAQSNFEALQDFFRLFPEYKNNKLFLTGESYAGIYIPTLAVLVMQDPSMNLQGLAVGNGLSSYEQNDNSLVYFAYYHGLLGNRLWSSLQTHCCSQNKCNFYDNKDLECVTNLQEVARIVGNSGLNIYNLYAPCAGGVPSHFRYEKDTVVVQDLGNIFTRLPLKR
T1 sequence (P10619 327-480 limits assumed): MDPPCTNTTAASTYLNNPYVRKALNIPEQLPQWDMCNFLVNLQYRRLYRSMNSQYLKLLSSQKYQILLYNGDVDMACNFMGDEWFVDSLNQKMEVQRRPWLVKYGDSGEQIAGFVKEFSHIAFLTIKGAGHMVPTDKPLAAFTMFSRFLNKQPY
Outline: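 Human cathepsin A (res. 29-480, C-His10) pre-activated with cathepsin L (MES pH 6.0, DTT, 15 min, 37 °C; quenched with 10 μM E-64). Enzyme (833 ng/ml) preincubated 15 min RT with compound in MES pH 5.5/DTT, then 2 μM Bodipy FL-bradykinin for 15 min RT. Capillary electrophoresis product/substrate peak areas; IC50 from % inhibition.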

Cc1cc(F)ccc1C(CC(=O)O)NC(=O)c1cc(O)n(-c2ccccc2F)n1 (stereo not shown) [Example 248] and O=C(O)C[C@H](NC(=O)c1cc(O)n(-c2ccccc2F)n1)c1cccc(C(F)(F)F)c1 [Example 241] fall in the same range of IC50: 100 to 1000 nM for the first, 100 to 1000 nM for the second.

CCc1ccc(C(CC(=O)O)NC(=O)c2cc(O)n(-c3ccccc3Cl)n2)cc1 (stereo not shown) [Example 224] and COc1cccc(-c2ccc(C(CC(=O)O)NC(=O)c3cc(O)n(-c4ccccc4Cl)n3)cc2)c1 (stereo not shown) [Example 157] fall in the same range of IC50: 100 to 1000 nM for the first, 100 to 1000 nM for the second.

O=C(O)CC(NC(=O)c1cc(O)n(-c2ccccc2Cl)n1)c1cccc(C(F)(F)F)c1Cl (stereo not shown) [Example 223] and O=C(O)CC(NC(=O)c1cc(O)n(-c2ccccc2F)n1)c1cccc(Oc2ccc(Cl)cc2)c1 (stereo not shown) [Example 246] fall in the same range of IC50: 100 to 1000 nM for the first, 100 to 1000 nM for the second.

same assay, conditions: read-out: Activity (2): Cathepsin A inhibitory activity (IC50 class)

COc1cc(-c2ccccc2)ccc1C(CC(=O)O)NC(=O)c1cc(O)n(-c2ccccc2F)n1 (stereo not shown) [Example 551, 3-{[1-(2-Fluoro-phenyl)-5-hydroxy-1H-pyrazole-3-carbonyl]-amino}-3-(3-methoxy-biphenyl-4-yl)-propionic acid] and O=C(O)CC(NC(=O)c1cc(O)n(-c2ccccc2F)n1)c1ccc(-c2cccc(Cl)c2)cc1 (stereo not shown) [Example 541] fall in the same range of IC50: 100 to 1000 nM for the first, 100 to 1000 nM for the second.

Cc1ccccc1[C@H](CC(=O)O)NC(=O)c1cc(OCC(C)(O)C2CC2)n(-c2ccccc2F)n1 (stereo partly drawn) [Example 757, (S)-3-{[5-(2-Cyclopropyl-2-hydroxy-propoxy)-1-(2-fluoro-phenyl)-1H-pyrazole-3-carbonyl]-amino}-3-o-tolyl-propionic acid] and CCC(O)(CC)COc1cc(C(=O)N[C@@H](CC(=O)O)c2ccccc2C)nn1-c1ccccc1F [Example 756] cannot be ordered by IC50: under 100 nM for the first, under 100 nM for the second.

COc1ccc(C(CC(=O)O)NC(=O)c2cc(O)n(-c3ccccc3F)n2)c(C(F)(F)F)c1 (stereo not shown) [Example 552, 3-{[1-(2-Fluoro-phenyl)-5-hydroxy-1H-pyrazole-3-carbonyl]-amino}-3-(4-methoxy-2-trifluoromethyl-phenyl)-propionic acid] and Cc1ccccc1[C@H](CC(=O)O)NC(=O)c1cc(O)n(-c2c(F)cccc2F)n1 [Example 588] fall in the same range of IC50: 100 to 1000 nM for the first, 100 to 1000 nM for the second.

First: CCOc1cc(C(=O)N[C@@H](CC(=O)O)c2ccccc2C)nn1-c1ccccc1Cl [Example 727]
Second: CCOc1cc(C(=O)N[C@@H](CC(=O)O)c2ccccc2C(F)(F)F)nn1-c1ccccc1Cl [Example 741]
The IC50 of the first is lower: under 100 nM for the first, 100 to 1000 nM for the second. The first is the more potent here.

First: Cc1ccccc1[C@H](CC(=O)O)NC(=O)c1cc(OCc2ccon2)n(-c2ccccc2F)n1 [Example 647]
Second: Cc1ccccc1[C@H](CC(=O)O)NC(=O)c1cc(OCc2cccc(C(F)(F)F)c2)n(-c2ccccc2F)n1 [Example 624]
The IC50 of the first is lower: under 100 nM for the first, 100 to 1000 nM for the second.

CCOc1cc(C(=O)NC(CC(=O)O)c2cccc(F)c2C)nn1-c1ccccc1F (stereo not shown) [Example 706] and Cc1cccc(C(CC(=O)O)NC(=O)c2cc(OCC3CC3)n(-c3ccccc3F)n2)c1C (stereo not shown) [Example 703] cannot be ordered by IC50: under 100 nM for the first, under 100 nM for the second.

Compared with O=C(O)C[C@H](NC(=O)c1cc(OCC2CC2)n(-c2ccccc2F)n1)c1ccccc1F [Example 699], CC(C)(C)[C@](C)(O)COc1cc(C(=O)N[C@@H](CC(=O)O)c2ccccc2Cl)nn1-c1ccccc1F (single isomer, unassigned) [Example 759] is lower in IC50: 100 to 1000 nM for the first, under 100 nM for the second.

same assay, conditions: read-out: Activity (2): Cathepsin A inhibitory activity, IC50 class

O=C(O)CC(NC(=O)c1cc(O)n(-c2ccc(Cl)cc2)n1)c1ccc(Oc2ccccc2)cc1 (stereo not shown) [Example 294] and O=C(O)CC(NC(=O)c1cc(O)n(-c2ccccc2)n1)c1ccc(F)cc1 (stereo not shown) [Example 61] fall in the same range of IC50: 1000 to 30000 nM for the first, 1000 to 30000 nM for the second.

Compared with Cc1ccc(C)c(-n2nc(C(=O)NC(CC(=O)O)C3CCOCC3)cc2O)c1 (stereo not shown) [Example 43], COc1ccccc1[C@H](CC(=O)O)NC(=O)c1cc(O)n(-c2cccc(F)c2)n1 [Example 307] is lower in IC50: 1000 to 30000 nM for the first, 100 to 1000 nM for the second. The second is the more potent here.

O=C(O)C[C@H](NC(=O)c1cc(O)n(-c2cccc(F)c2)n1)c1cccc(C(F)(F)F)c1 [Example 318] and COc1ccc(C(CC(=O)O)NC(=O)c2cc(O)n(-c3cccc(F)c3)n2)c(Cl)c1 (stereo not shown) [Example 310] fall in the same range of IC50: 100 to 1000 nM for the first, 100 to 1000 nM for the second.

First: CC(C)[C@@](C)(O)COc1cc(C(=O)N[C@@H](CC(=O)O)c2ccccc2F)nn1-c1ccccc1F [Example 862, (S)-3-(2-Fluoro-phenyl)-3-{[1-(2-fluoro-phenyl)-5-((R)-2-hydroxy-2,3-dimethyl-butoxy)-1H-pyrazole-3-carbonyl]-amino}-propionic acid]
Second: COc1cccc([C@H](CC(=O)O)NC(=O)c2cc(OC[C@](C)(O)C(C)C)n(-c3ccccc3F)n2)c1 [Example 806, (S)-3-{[1-(2-Fluoro-phenyl)-5-((R)-2-hydroxy-2,3-dimethyl-butoxy)-1H-pyrazole-3-carbonyl]-amino}-3-(3-methoxy-phenyl)-propionic acid]
The IC50 of the first is higher: 100 to 1000 nM for the first, under 100 nM for the second.

O=C(O)CC(NC(=O)c1cc(O)n(-c2ccc(F)cc2)n1)c1ccc(-c2cccc(F)c2)cc1 (stereo not shown) [Example 356] and O=C(O)C[C@H](NC(=O)c1cc(O)n(-c2ccccc2Cl)n1)c1ccccc1C(F)(F)F [Example 108] fall in the same range of IC50: 100 to 1000 nM for the first, 100 to 1000 nM for the second.

COc1cccc([C@H](CC(=O)O)NC(=O)c2cc(OC[C@@](C)(O)C(C)(C)C)n(-c3ccccc3F)n2)c1OC [Example 884, (S)-3-(2,3-Dimethoxy-phenyl)-3-{[1-(2-fluoro-phenyl)-5-((S)-2-hydroxy-2,3,3-trimethyl-butoxy)-1H-pyrazole-3-carbonyl]-amino}-propionic acid] and CC(C)(C)[C@H](O)COc1cc(C(=O)N[C@@H](CC(=O)O)c2ccccc2Cl)nn1-c1ccccc1F [Example 797, (S)-3-(2-Chloro-phenyl)-3-{[1-(2-fluoro-phenyl)-5-((S)-2-hydroxy-3,3-dimethyl-butoxy)-1H-pyrazole-3-carbonyl]-amino}-propionic acid] cannot be ordered by IC50: under 100 nM for the first, under 100 nM for the second.

With CC(C)C(C)(O)COc1cc(C(=O)N[C@@H](CC(=O)O)c2cccc(C#N)c2)nn1-c1ccccc1F (stereo partly drawn) [Example 807, (S)-3-(3-Cyano-phenyl)-3-{[1-(2-fluoro-phenyl)-5-(2-hydroxy-2,3-dimethyl-butoxy)-1H-pyrazole-3-carbonyl]-amino}-propionic acid] the IC50 was under 100 nM.

same assay, conditions: recombinant human cathepsin A 833 ng/ml, Bodipy FL-labeled bradykinin 2 μM, pH 5.5; read-out: CATH-A IC50

Point of comparison: O=C(O)CC(NC(=O)c1cc(O)n(-c2ccc(F)cc2F)n1)c1cc(F)ccc1F (stereo not shown) [Example 451, 3-(2,5-Difluoro-phenyl)-3-{[1-(2,4-difluoro-phenyl)-5-hydroxy-1H-pyrazole-3-carbonyl]-amino}-propionic acid], IC50 233 nM. Against it:
- COc1cc(-c2ccccc2)ccc1C(CC(=O)O)NC(=O)c1cc(O)n(-c2ccccc2F)n1 (stereo not shown) [Example 551, 3-{[1-(2-Fluoro-phenyl)-5-hydroxy-1H-pyrazole-3-carbonyl]-amino}-3-(3-methoxy-biphenyl-4-yl)-propionic acid] — 1.5-fold higher, 352 nM
- COc1ccc(C(CC(=O)O)NC(=O)c2cc(O)n(-c3ccccc3F)n2)c(C(F)(F)F)c1 (stereo not shown) [Example 552, 3-{[1-(2-Fluoro-phenyl)-5-hydroxy-1H-pyrazole-3-carbonyl]-amino}-3-(4-methoxy-2-trifluoromethyl-phenyl)-propionic acid] — within 1.5-fold, 323 nM
- O=C(O)CC(NC(=O)c1cc(O)n(-c2ccc(F)cc2)n1)c1ccc(-c2ccccn2)cc1 (stereo not shown) [Example 527, 3-{[1-(4-Fluoro-phenyl)-5-hydroxy-1H-pyrazole-3-carbonyl]-amino}-3-(4-pyridin-2-yl-phenyl)-propionic acid] — 1.5-fold lower, 152 nM
- O=C(O)C[C@H](NC(=O)c1cc(O)n(-c2ccc(F)cc2)n1)c1ccccc1Cl [Example 528, (S)-3-(2-Chloro-phenyl)-3-{[1-(4-fluoro-phenyl)-5-hydroxy-1H-pyrazole-3-carbonyl]-amino}-propionic acid] — 1.8-fold higher, 413 nM
- O=C(O)CC(NC(=O)c1cc(O)n(-c2ccccc2)n1)c1ccc(-c2ccccn2)cc1 (stereo not shown) [Example 499, 3-[(5-Hydroxy-1-phenyl-1H-pyrazole-3-carbonyl)-amino]-3-(4-pyridin-2-yl-phenyl)-propionic acid; compound with trifluoro-acetic acid] — 1.6-fold lower, 147 nM
- O=C(O)CC(NC(=O)c1cc(O)n(-c2ccc(Cl)cc2)n1)c1cc(F)ccc1F (stereo not shown) [Example 472, 3-{[1-(4-Chloro-phenyl)-5-hydroxy-1H-pyrazole-3-carbonyl]-amino}-3-(2,5-difluoro-phenyl)-propionic acid] — 18-fold higher, 4090 nM

same assay, conditions: recombinant human cathepsin A; read-out: Activity (2): Cathepsin A inhibitory activity, IC50 class

CN(C)c1ccc(C(CC(=O)O)NC(=O)c2cc(O)n(-c3ccccc3Cl)n2)c(Cl)c1 (stereo not shown) [Example 456] and CN(C)c1ccc(C(CC(=O)O)NC(=O)c2cc(O)n(-c3ccc(F)cc3)n2)c(Cl)c1 (stereo not shown) [Example 490] fall in the same range of IC50: 1000 to 30000 nM for the first, 1000 to 30000 nM for the second.

O=C(O)CC(NC(=O)c1cc(O)n(-c2ccc(F)cc2)n1)c1ccc(-c2ccccn2)cc1 (stereo not shown) [Example 527, 3-{[1-(4-Fluoro-phenyl)-5-hydroxy-1H-pyrazole-3-carbonyl]-amino}-3-(4-pyridin-2-yl-phenyl)-propionic acid] and O=C(O)CC(NC(=O)c1cc(O)n(-c2ccccc2)n1)c1ccc(-c2ccccn2)cc1 (stereo not shown) [Example 499, 3-[(5-Hydroxy-1-phenyl-1H-pyrazole-3-carbonyl)-amino]-3-(4-pyridin-2-yl-phenyl)-propionic acid; compound with trifluoro-acetic acid] fall in the same range of IC50: 100 to 1000 nM for the first, 100 to 1000 nM for the second.

COc1cc(C(=O)N[C@@H](CC(=O)NCC(C)(C)C)c2ccccc2C)nn1-c1ccccc1F [Example 924, 1-(2-Fluoro-phenyl)-5-methoxy-1H-pyrazole-3-carboxylic acid [(S)-2-(2,2-dimethyl-propylcarbamoyl)-1-o-tolyl-ethyl]-amide] and Cc1ccccc1[C@H](CC(=O)O)NC(=O)c1cc(O)n(-c2ccccc2C)n1 [Example 532] cannot be ordered by IC50: under 100 nM for the first, under 100 nM for the second.

Compared with O=C(O)C[C@H](NC(=O)c1cc(O)n(-c2ccc(F)cc2)n1)c1ccccc1Cl [Example 528, (S)-3-(2-Chloro-phenyl)-3-{[1-(4-fluoro-phenyl)-5-hydroxy-1H-pyrazole-3-carbonyl]-amino}-propionic acid], O=C(O)CC(NC(=O)c1cc(O)n(-c2ccc(Cl)cc2)n1)c1cc(F)ccc1F (stereo not shown) [Example 472, 3-{[1-(4-Chloro-phenyl)-5-hydroxy-1H-pyrazole-3-carbonyl]-amino}-3-(2,5-difluoro-phenyl)-propionic acid] is higher in IC50: 100 to 1000 nM for the first, 1000 to 30000 nM for the second.

Cc1c(F)cccc1C(CC(=O)O)NC(=O)c1cc(O)n(-c2cccc(F)c2)n1 (stereo not shown) [Example 482] and O=C(O)CC(NC(=O)c1cc(O)n(-c2ccc(F)cc2F)n1)c1cc(F)ccc1F (stereo not shown) [Example 451, 3-(2,5-Difluoro-phenyl)-3-{[1-(2,4-difluoro-phenyl)-5-hydroxy-1H-pyrazole-3-carbonyl]-amino}-propionic acid] fall in the same range of IC50: 100 to 1000 nM for the first, 100 to 1000 nM for the second.

First: O=C(O)CC(NC(=O)c1cc(O)n(-c2ccc(F)cc2F)n1)c1ccc(-c2ccccn2)cc1 (stereo not shown) [Example 501]
Second: O=C(O)CC(NC(=O)c1cc(O)n(-c2cccc(Cl)c2)n1)c1ccc(-c2ccccc2)cc1 (stereo not shown) [Example 421]
The IC50 of the first is lower: under 100 nM for the first, 100 to 1000 nM for the second.
